The source of these data is ChEMBL document CHEMBL5365500, “Development and Antibacterial Properties of 4-[4-(Anilinomethyl)-3-phenylpyrazol-1-yl]benzoic Acid Derivatives as Fatty Acid Biosynthesis Inhibitors” (J Med Chem, 2023).

Converted amounts (≈) assume the structure as drawn. The source made the active and inactive calls. The calls are words filed in the database; no cut-off is given here.

The test system of experiment [1] is Staphylococcus aureus. Briefly: Antimicrobial activity against clinical isolate Staphylococcus aureus Smu21 assessed as inhibition of growth measured after 20 to 24 hrs incubation by CLSI method. Particulars: time 20-24 hrs. The format is functional.
Experiment [2] deals with Staphylococcus aureus. Kind of experiment: Antimicrobial activity against clinical isolate Staphylococcus aureus Smu81 assessed as inhibition of growth measured after 20 to 24 hrs incubation by CLSI method. The format is functional. The settings on record: time 20-24 hrs.
The test system of experiment [3] is Staphylococcus aureus. Briefly: Antimicrobial activity against clinical isolate Staphylococcus aureus Smu9 assessed as inhibition of growth measured after 20 to 24 hrs incubation by CLSI method. The format is functional. Particulars: time 20-24 hrs.
The subject of experiment [4] is Staphylococcus aureus. Briefly: Antimicrobial activity against clinical isolate Staphylococcus aureus Smu109 assessed as inhibition of growth measured after 20 to 24 hrs incubation by CLSI method. The format is functional. The settings on record: time 20-24 hrs.
Experiment [5] has as its system Staphylococcus aureus. Briefly: Antimicrobial activity against clinical isolate Staphylococcus aureus Smu57 assessed as inhibition of growth measured after 20 to 24 hrs incubation by CLSI method. The settings on record: time 20-24 hrs. The format is functional.
Experiment [6] concerns Staphylococcus aureus. Kind of experiment: Antimicrobial activity against Staphylococcus aureus UAB159 assessed as inhibition of growth measured after 20 to 24 hrs incubation by CLSI method. The format is functional. The settings on record: time 20-24 hrs.
Experiment [7] concerns Staphylococcus aureus. Kind of experiment: Antimicrobial activity against Staphylococcus aureus ATCC 25923 assessed as inhibition of visible growth measured after 20 to 24 hrs incubation by CLSI method. The settings on record: time 20-24 hrs. The format is functional.
Experiment [8] deals with Enterococcus faecalis. Briefly: Antimicrobial activity against antibiotic-resistant Enterococcus faecalis ATCC 51299 assessed as inhibition of visible growth measured after 20 to 24 hrs incubation by CLSI method. The format is functional. Particulars: time 20-24 hrs.
In experiment [9] the test system is Staphylococcus epidermidis. Briefly: Antimicrobial activity against antibiotic-resistant Staphylococcus epidermidis ATCC 700296 assessed as inhibition of visible growth measured after 20 to 24 hrs incubation by CLSI method. The format is functional. Particulars: time 20-24 hrs.
The next experiment relates to Enterococcus faecium. Briefly: Antimicrobial activity against antibiotic-resistant Enterococcus faecium ATCC 700221 assessed as inhibition of visible growth measured after 20 to 24 hrs incubation by CLSI method. The format is functional. The settings on record: time 20-24 hrs.
For experiment [10], the system named is Enterococcus faecalis. Briefly: Antimicrobial activity against antibiotic-susceptible Enterococcus faecalis ATCC 29212 assessed as inhibition of visible growth measured after 20 to 24 hrs incubation by CLSI method. The format is functional. The settings on record: time 20-24 hrs.
The subject of experiment [11] is Staphylococcus aureus. Briefly: Antimicrobial activity against antibiotic-resistant Staphylococcus aureus ATCC 33592 assessed as inhibition of visible growth measured after 20 to 24 hrs incubation by CLSI method. The format is functional. The settings on record: time 20-24 hrs.
Experiment [12] concerns Staphylococcus aureus. Briefly: Antimicrobial activity against antibiotic-resistant Staphylococcus aureus ATCC 33591 assessed as inhibition of visible growth measured after 20 to 24 hrs incubation by CLSI method. The format is functional. Particulars: time 20-24 hrs.
In experiment [13] the test system is Staphylococcus aureus. Briefly: Antimicrobial activity against antibiotic-resistant Staphylococcus aureus ATCC BAA-2312 assessed as inhibition of visible growth measured after 20 to 24 hrs incubation by CLSI method. The format is functional. Particulars: time 20-24 hrs.
Experiment [14] has as its system Staphylococcus aureus. Briefly: In vivo antimicrobial activity against Staphylococcus aureus UAMS-1 infected in Caenorhabditis elegans AU37 nematodes assessed as viability of nematodes incubated for 5 days by susceptibility test. The settings on record: UAMS-1, 120 h, time 5 day. The format is functional.
The subject of experiment [15] is Staphylococcus aureus. Kind of experiment: In vivo antimicrobial activity against Staphylococcus aureus Newman infected in Caenorhabditis elegans AU37 nematodes assessed as viability of nematodes incubated for 5 days by susceptibility test. The format is functional. The settings on record: 120 h, time 5 day.
For a further experiment, the system named is Bacillus subtilis. Kind of experiment: Antimicrobial activity against antibiotic-resistant Bacillus subtilis ATCC 6623 assessed as inhibition of visible growth measured after 20 to 24 hrs incubation by CLSI method. The format is functional. Particulars: time 20-24 hrs.
Experiment [16] concerns Staphylococcus aureus. Kind of experiment: In vivo antimicrobial activity against Staphylococcus aureus USA300 infected in Caenorhabditis elegans AU37 nematodes assessed as viability of nematodes incubated for 5 days by susceptibility test. Particulars: USA300, 120 h, time 5 day. The format is functional.
Experiment [17] deals with Staphylococcus aureus. Briefly: Antimicrobial activity against antibiotic-resistant Staphylococcus aureus ATCC 700699 assessed as inhibition of visible growth measured after 20 to 24 hrs incubation by CLSI method. Particulars: time 20-24 hrs. The format is functional.
The test system of experiment [18] is Staphylococcus aureus. Briefly: Antimicrobial activity against methicilline-resistant Staphylococcus aureus ATCC 700699 persisters assessed as bacterial killing at 32 time of MIC concentration measured for every 2 hrs upto 8 hrs by Persisters time course assay. The format is functional, organism-based.
Experiment [19] has as its system Panel NCI-60 (60 carcinoma cell lines). Briefly: Cytotoxicity against human panel NCI-60 (60 carcinoma cell lines)cells assessed as cell viability at 10 uM measured after 24 hrs by resazurin assay. The format is functional, cell-based. For orientation: Resazurin is reduced to fluorescent resorufin, in cell work by metabolically active cells.
Experiment [20] has as its system Enterococcus faecalis. Kind of experiment: Antimicrobial activity against antibiotic-susceptible Enterococcus faecalis ATCC 29212 assessed as eradication of biofilm measured after 24 hrs incubation by Calgary method. The format is functional.
The test system of experiment [21] is Staphylococcus aureus. Briefly: Bactericidal activity in antibiotic-resistant Staphylococcus aureus ATCC 700699 assessed as reduction in viable cell count at 4 times of MIC measured upto 24 hrs by time kill assay. The format is functional, organism-based.
Experiment [22] relates to Staphylococcus aureus. Briefly: Antimicrobial activity against Staphylococcus aureus ATCC 25923 assessed as eradication of biofilm measured after 24 hrs incubation by Calgary method. The format is functional.

Consider `O=C(O)c1ccc(-n2cc(CNc3cc(Cl)cc(Cl)c3)c(-c3ccc(C(F)(F)F)cc3)n2)cc1`, for which the minimal inhibitory concentration (MIC) (usually the least concentration at which growth counts as inhibited) was found to be 2 µg/mL (≈ 3.95 µM) in the experiment with Staphylococcus aureus [1]; 2 µg/mL (≈ 3.95 µM) in the experiment with Staphylococcus aureus [2]; 1 µg/mL (≈ 1.98 µM) in the experiment with Staphylococcus aureus [3]; 2 µg/mL (≈ 3.95 µM) in the experiment on Staphylococcus aureus [4]; 2 µg/mL (≈ 3.95 µM) with Staphylococcus aureus [5]; 2 µg/mL (≈ 3.95 µM) in the experiment on Staphylococcus aureus [6].
Consider `O=C(O)c1ccc(-n2cc(CNc3cc(Cl)cc(C(F)(F)F)c3)c(-c3ccc(F)c(F)c3)n2)cc1`, for which the MIC with Staphylococcus aureus [7] is 1 µg/mL (≈ 1.97 µM); in the experiment on Enterococcus faecalis [8], 2 µg/mL (≈ 3.94 µM); in [9], 2 µg/mL (≈ 3.94 µM); in the experiment on Enterococcus faecium, 2 µg/mL (≈ 3.94 µM); with Enterococcus faecalis [10], 4 µg/mL (≈ 7.88 µM); in the experiment with Staphylococcus aureus [11] it was 1 µg/mL (≈ 1.97 µM). In addition, the minimal inhibitory concentration (MIC) in the experiment on Staphylococcus aureus [12] worked out at 0.5 µg/mL (≈ 0.985 µM); in the experiment with Staphylococcus aureus [13], 0.5 µg/mL (≈ 0.985 µM); with Staphylococcus aureus [14] it was 1 µg/mL (≈ 1.97 µM); in the experiment with Staphylococcus aureus [15] it was 0.5 µg/mL (≈ 0.985 µM); with Bacillus subtilis, 0.5 µg/mL (≈ 0.985 µM); in the experiment on Staphylococcus aureus [16], 1 µg/mL (≈ 1.97 µM). Besides, the minimum inhibitory concentration (MIC) in the experiment on Staphylococcus aureus [17] came to 1 µg/mL (≈ 1.97 µM).
Consider `O=C(O)c1ccc(-n2cc(CNc3ccc(Cl)c(Cl)c3)c(-c3ccc(F)cc3)n2)cc1`, for which the minimal inhibitory concentration (MIC) with Staphylococcus aureus [7] is 2 µg/mL (≈ 4.38 µM); in the experiment on Enterococcus faecalis [8] it was over 32 µg/mL; in experiment [9] it was 4 µg/mL (≈ 8.77 µM); in the experiment with Enterococcus faecium it was over 32 µg/mL; in the experiment on Enterococcus faecalis [10], over 32 µg/mL; with Staphylococcus aureus [11], 2 µg/mL (≈ 4.38 µM). The MIC was 0.5 µg/mL (≈ 1.1 µM) in the experiment on Staphylococcus aureus [12]; 1 µg/mL (≈ 2.19 µM) in the experiment on Staphylococcus aureus [13]; 1 µg/mL (≈ 2.19 µM) in the experiment on Staphylococcus aureus [14]; 1 µg/mL (≈ 2.19 µM) with Staphylococcus aureus [15]; 1 µg/mL (≈ 2.19 µM) with Bacillus subtilis; 1 µg/mL (≈ 2.19 µM) in the experiment on Staphylococcus aureus [16]. Moreover, the MIC with Staphylococcus aureus [17] was 1 µg/mL (≈ 2.19 µM).
`O=C(O)c1ccc(-n2cc(CNc3cc(C(F)(F)F)cc(C(F)(F)F)c3)c(-c3cccc(F)c3)n2)cc1`: the MIC came out at 2 µg/mL (≈ 3.82 µM) with Staphylococcus aureus [7]; 2 µg/mL (≈ 3.82 µM) in the experiment with Enterococcus faecalis [8]; 4 µg/mL (≈ 7.64 µM) in [9]; 2 µg/mL (≈ 3.82 µM) with Enterococcus faecium; 4 µg/mL (≈ 7.64 µM) in the experiment on Enterococcus faecalis [10]; 1 µg/mL (≈ 1.91 µM) in the experiment on Staphylococcus aureus [11]. Further, the minimal inhibitory concentration (MIC) in the experiment on Staphylococcus aureus [12] was found to be 1 µg/mL (≈ 1.91 µM); with Staphylococcus aureus [13], 1 µg/mL (≈ 1.91 µM); with Bacillus subtilis, 1 µg/mL (≈ 1.91 µM); in the experiment on Staphylococcus aureus [17], 2 µg/mL (≈ 3.82 µM). For the same compound, in the experiment on Staphylococcus aureus [18], the outcome was Active.
As to `O=C(O)c1ccc(-n2cc(CNc3cc(C(F)(F)F)cc(C(F)(F)F)c3)c(-c3ccc(F)cc3)n2)cc1`, the minimal inhibitory concentration (MIC) with Staphylococcus aureus [7] came out at 1 µg/mL (≈ 1.91 µM); in the experiment on Enterococcus faecalis [8], 4 µg/mL (≈ 7.64 µM); in experiment [9] it was 4 µg/mL (≈ 7.64 µM); in the experiment with Enterococcus faecium, 2 µg/mL (≈ 3.82 µM); in the experiment on Enterococcus faecalis [10] it was 4 µg/mL (≈ 7.64 µM); in the experiment on Staphylococcus aureus [11], 1 µg/mL (≈ 1.91 µM). In addition, the minimal inhibitory concentration (MIC) in the experiment with Staphylococcus aureus [12] is 0.5 µg/mL (≈ 0.955 µM); in the experiment on Staphylococcus aureus [13], 1 µg/mL (≈ 1.91 µM); with Staphylococcus aureus [14], 1 µg/mL (≈ 1.91 µM); in the experiment with Staphylococcus aureus [15], 0.5 µg/mL (≈ 0.955 µM); in the experiment with Bacillus subtilis, 1 µg/mL (≈ 1.91 µM); in the experiment with Staphylococcus aureus [16] it was 1 µg/mL (≈ 1.91 µM). For the same compound, in the experiment on Staphylococcus aureus [17], the MIC worked out at 2 µg/mL (≈ 3.82 µM).
Consider `O=C(O)c1ccc(-n2cc(CNc3cc(Br)cc(C(F)(F)F)c3)c(-c3cccc(F)c3)n2)cc1`, for which the minimal inhibitory concentration (MIC) turned out to be 2 µg/mL (≈ 3.74 µM) with Staphylococcus aureus [7]; 4 µg/mL (≈ 7.49 µM) with Enterococcus faecalis [8]; 4 µg/mL (≈ 7.49 µM) in experiment [9]; 2 µg/mL (≈ 3.74 µM) with Enterococcus faecium; 4 µg/mL (≈ 7.49 µM) in the experiment on Enterococcus faecalis [10]; 2 µg/mL (≈ 3.74 µM) in the experiment with Staphylococcus aureus [11]. Moreover, the minimal inhibitory concentration (MIC) in the experiment with Staphylococcus aureus [12], with Staphylococcus aureus [13], in the experiment with Staphylococcus aureus [14], in the experiment on Staphylococcus aureus [15], in the experiment with Bacillus subtilis and in the experiment with Staphylococcus aureus [16] was 1 µg/mL (≈ 1.87 µM) throughout. Further, the MIC in the experiment with Staphylococcus aureus [17] was 2 µg/mL (≈ 3.74 µM). Besides, in experiment [19], the result was inactive. The MBEC in the experiment with Enterococcus faecalis [20] and with Staphylococcus aureus [22] was 4 µg/mL in each case. Also, the outcome in the experiment with Staphylococcus aureus [21] and in the experiment on Staphylococcus aureus [18] was Active.
As for `O=C(O)c1ccc(-n2cc(CNc3cc(Cl)c(F)c(Cl)c3)c(-c3ccc(C(F)(F)F)cc3)n2)cc1`, the MIC in the experiment on Staphylococcus aureus [1], in the experiment on Staphylococcus aureus [2], with Staphylococcus aureus [3], in the experiment with Staphylococcus aureus [4], in the experiment on Staphylococcus aureus [5] and with Staphylococcus aureus [6] was 2 µg/mL (≈ 3.81 µM) throughout.
